Tested on: HSV-1 K26-GFP
Experiment: microbe, parasite or virus in culture
Type: cell-based, HSV-1 (F strain)
Conditions: Human alphaherpesvirus 1, Vero, 24 h; for inhibition at 20 µM: read-out: percentage inhibition at the highest concentration tested (20 µM)

Row | Compound | EC50 [µM] | inhibition at 20 µM [%]
1 | Nc1nc2c(ncn2COCCO)c(=O)[nH]1 [Acyclovir (ACV), Acyclovir, reference compound] | 0.68 ± 0.11 | 
2 | O=C1c2c(O)c(=O)ccn2N([C@@H]2c3ccccc3SCc3c2ccc(F)c3F)[C@@H]2COCCN12 [Baloxavir acid, reference compound] | > 20 | 40.7
3 | COC(=O)OCOc1c2n(ccc1=O)N([C@@H]1c3ccccc3SCc3c1ccc(F)c3F)[C@@H]1COCCN1C2=O [Baloxavir marboxil, reference compound] | > 20 | 13.7
4 | O=C1c2c(O)c(=O)ccn2N(Cc2ccc(C(F)(F)F)cc2)[C@@H]2COCCN12 [Compound 7, (R)-7-hydroxy-12-(4-(trifluoromethyl)benzyl)-3,4,12,12a-tetrahydro-1H-[1,4]oxazino[3,4-c]pyrido[2,1-f][1,2,4]triazine-6,8-dione] | 3.4 ± 2.7 | 
5 | O=C1c2c(O)c(=O)ccn2N(Cc2ccc(Cl)c(F)c2)[C@@H]2COCCN12 [Compound 10, (R)-12-(4-chloro-3-fluorobenzyl)-7-hydroxy-3,4,12,12a-tetrahydro-1H-[1,4]oxazino[3,4-c]pyrido[2,1-f][1,2,4]triazine-6,8-dione] | 10.3 ± 0.9 | 
6 | O=C1c2c(O)c(=O)ccn2N(Cc2ccc(-c3ccco3)cc2)[C@@H]2COCCN12 [Compound 18, (R)-12-(4-(furan-2-yl)benzyl)-7-hydroxy-3,4,12,12a-tetrahydro-1H-[1,4]oxazino[3,4-c]pyrido[2,1-f][1,2,4]triazine-6,8-dione] | > 20 | 48.5
7 | O=C1c2c(O)c(=O)ccn2N(Cc2ccc(-c3ccccc3)cc2)[C@@H]2COCCN12 [Compound 19, (R)-12-([1,1'-biphenyl]-4-yimethyl)-7-hydroxy-3,4,12,12a-tetrahydro-1H-[1,4]oxazino[3,4-c]pyrido[2,1-f][1,2,4]triazine-6,8-dione] | 2.8 ± 1.1 | 
8 | O=C1c2c(O)c(=O)ccn2N(Cc2ccc(-c3ccc(F)cc3)cc2)[C@@H]2COCCN12 [Compound 29, (R)-12-((4'-fluoro-[1,1'-biphenyl]-4-yl)methyl)-7-hydroxy-3,4,12,12a-tefrahydro-1H-[1,4]oxazino[3,4-c]pyrido[2,1-f][1,2,4]triazine-6,8-dione] | 4 ± 1.3 | 
9 | O=C1c2c(O)c(=O)ccn2N(Cc2ccc(-c3ccc(OC(F)(F)F)cc3)cc2)[C@@H]2COCCN12 [Compound 32, (R)-7-hydroxy-12-((4'-(trifluoromethoxy)-[1,1'-biphenyl]-4-yl)methyl)-3,4,12,12a-tetrahydro-1H-[1,4]oxazino[3,4-c]pyrido[2,1-f][1,2,4]triazine-6,8-dione] | 8.9 ± 1 | 
10 | CC(C)c1ccc(O)c(O)c(=O)c1 [β-thujaplicinol, reference compound] | 3.9 ± 0.9 | 
